{"source": "ChEMBL document CHEMBL1157532", "about": "“Halichonadin F and the Cu(I) complex of halichonadin C from the sponge Halichondria sp” (2008)", "assay_type_in_all_cases": "functional", "key": {"Micrococcus luteus": {"tested_on": "Micrococcus luteus", "experiment": "Antimicrobial activity against Micrococcus luteus"}, "[1]": {"tested_on": "Trichophyton mentagrophytes", "experiment": "Antimicrobial activity against Trichophyton mentagrophytes"}, "Cryptococcus neoformans": {"tested_on": "Cryptococcus neoformans", "experiment": "Antimicrobial activity against Cryptococcus neoformans"}}, "data": [{"smiles": "C[C@@H]1CC[C@@H]2[C@@H]1[C@H]1[C@@H](CC[C@]2(C)N)C1(C)C", "note": "[HALICHONADIN F]", "values": [{"measurement": "MIC", "setting": "Micrococcus luteus", "result": 4, "unit": "µg/mL"}, {"measurement": "MIC", "setting": "[1]", "result": 16, "unit": "µg/mL"}, {"measurement": "MIC", "setting": "Cryptococcus neoformans", "result": 16, "unit": "µg/mL"}]}]}
